Test results reported in PubChem BioAssay AID330 (DTP/NCI, 2004).
Where “and” joins values, the source holds several entries; their conditions need not be identical. Identical values can stand only once. Toxic doses and inconclusive results are not listed. Square brackets hold non-standard residues; d marks the D form. Peptide text beside a SMILES is read from it. Hpg = N[CH](C(=O)O)c1ccc(O)cc1

System: P388 leukemia ip, CD2F1 mice, survival T/C
Test: NCI In Vivo Anticancer Drug Screen. Data for tumor model P388 Leukemia (intraperitoneal) in CD2F1 (CDF1) mice
Details: endpoint: median survival time, higher = longer survival
Procedure, shortened: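 Mice carrying the transplanted tumor received test compound or vehicle. Survival was recorded in each group, and the value is the treated-group measurement divided by that of the vehicle-treated control group.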

[1] = dose: 30.0 mg/kg/injection, schedule: Q01DX005 (ip), vehicle: saline with Tween-80
[2] = dose: 60.0 mg/kg/injection, schedule: Q01DX005 (ip), vehicle: saline with Tween-80
[3] = dose: 120.0 mg/kg/injection, schedule: Q01DX005 (ip), vehicle: saline with Tween-80
[4] = dose: 50.0 mg/kg/injection, schedule: Q01DX009 (ip), vehicle: saline
[5] = dose: 100.0 mg/kg/injection, schedule: Q01DX009 (ip), vehicle: saline
[6] = dose: 200.0 mg/kg/injection, schedule: Q01DX009 (ip), vehicle: saline
[7] = dose: 50.0 mg/kg/injection, schedule: Q01DX009 (ip), vehicle: saline with Tween-80
[8] = dose: 50.0 mg/kg/injection, schedule: Q04DX003 (ip), vehicle: saline with Tween-80
[9] = dose: 100.0 mg/kg/injection, schedule: Q04DX003 (ip), vehicle: saline with Tween-80
[10] = dose: 240.0 mg/kg/injection, schedule: Q01DX005 (ip), vehicle: saline with Tween-80
[11] = dose: 50.0 mg/kg/injection, schedule: Q01DX005 (ip), vehicle: saline with Tween-80
[12] = dose: 100.0 mg/kg/injection, schedule: Q01DX005 (ip), vehicle: saline with Tween-80
[13] = dose: 200.0 mg/kg/injection, schedule: Q01DX005 (ip), vehicle: saline with Tween-80
[14] = dose: 50.0 mg/kg/injection, schedule: Q01DX005 (ip), vehicle: Klucel (hydroxypropylcellulose) (HPC)
[15] = dose: 100.0 mg/kg/injection, schedule: Q01DX005 (ip), vehicle: Klucel (hydroxypropylcellulose) (HPC)
[16] = dose: 200.0 mg/kg/injection, schedule: Q01DX005 (ip), vehicle: Klucel (hydroxypropylcellulose) (HPC)
[17] = dose: 60.0 mg/kg/injection, schedule: Q01DX005 (ip), vehicle: saline
[18] = dose: 120.0 mg/kg/injection, schedule: Q01DX005 (ip), vehicle: saline
[19] = dose: 240.0 mg/kg/injection, schedule: Q01DX005 (ip), vehicle: saline
[20] = dose: 12.5 mg/kg/injection, schedule: Q04DX003 (ip), vehicle: saline with Tween-80
[21] = dose: 25.0 mg/kg/injection, schedule: Q04DX003 (ip), vehicle: saline with Tween-80

CC(C)(C)C(=O)Oc1c2ccccc2cc2ccccc12
T/C [1]: 88 % of control
T/C [2]: 88 % of control and 89 % of control
T/C [3]: 86 % of control

FC(F)(F)c1ccccc1NC(=S)SCc1ccco1
T/C (dose: 50.0 mg/kg/injection, schedule: Q01DX009 (ip), vehicle: suspension in saline): 93 % of control
T/C (dose: 100.0 mg/kg/injection, schedule: Q01DX009 (ip), vehicle: suspension in saline): 93 % of control

CCOC(OCC)c1ccc(-n2c(N)c(C#N)cnc2=S)c2c1OC2=NC=C(C#N)C#N
T/C [4]: 112 % of control
T/C [5]: 102 % of control
T/C [6]: 100 % of control

CC(=O)OCC1OC([S][Sb]([CH3])[CH3])C(OC(C)=O)C(OC(C)=O)C1OC(C)=O (configuration not stated)
T/C (dose: 15.0 mg/kg/injection, schedule: Q01DX005 (ip), vehicle: saline with Tween-80): 112 % of control
T/C [1]: 101 % of control
T/C [2]: 115 % of control

Cc1c2cccc(F)c2c[n+]2ccccc12
T/C (dose: 6.25 mg/kg/injection, schedule: Q01DX009 (ip), vehicle: Klucel (hydroxypropylcellulose) (HPC)): 96 % of control
T/C (dose: 12.5 mg/kg/injection, schedule: Q01DX009 (ip), vehicle: Klucel (hydroxypropylcellulose) (HPC)): 103 % of control
T/C (dose: 25.0 mg/kg/injection, schedule: Q01DX009 (ip), vehicle: Klucel (hydroxypropylcellulose) (HPC)): 102 % of control and 113 % of control

O=NN1CCN(N=O)CC1
T/C (dose: 25.0 mg/kg/injection, schedule: Q01DX009 (ip), vehicle: saline with Tween-80): 113 % of control
T/C [7]: 109 % of control
T/C [8]: 109 % of control
T/C [9]: 104 % of control

COC(=O)NCN(Cc1ccccc1)C(=O)CCCCCN
T/C [2]: 104 % of control
T/C [3]: 100 % of control
T/C [10]: 98 % of control

CC1(C2=CCCCC2)CCC(=O)NC1=O (configuration not stated)
T/C [2]: 100 % of control
T/C [3]: 98 % of control
T/C [10]: 98 % of control

COC1=NCc2ccccc2C2(OC)C(C)(C)C12C#N (configuration not stated)
T/C [11]: 96 % of control
T/C [12]: 99 % of control
T/C [13]: 101 % of control

COc1ccc(Cc2cc(O)c(O)cc2C)cc1
T/C (dose: 2.5 mg/kg/injection, schedule: Q01DX009 (ip), vehicle: saline with Tween-80): 108 % of control
T/C (dose: 5.0 mg/kg/injection, schedule: Q01DX009 (ip), vehicle: saline with Tween-80): 105 % of control
T/C (dose: 10.0 mg/kg/injection, schedule: Q01DX009 (ip), vehicle: saline with Tween-80): 108 % of control

O=c1n(-c2ccccc2)c(=O)n2n1C1C3C4CCC1C4(Cl)C32 (configuration not stated)
T/C (dose: 100.0 mg/kg/injection, schedule: Q01DX001 (ip), vehicle: saline with Tween-80): 100 % of control
T/C (dose: 200.0 mg/kg/injection, schedule: Q01DX001 (ip), vehicle: saline with Tween-80): 94 % of control
T/C (dose: 400.0 mg/kg/injection, schedule: Q01DX001 (ip), vehicle: saline with Tween-80): 91 % of control

CN(C)c1cc[n+](-c2c([O-])c3ccccc3n(-c3ccccc3)c2=O)cc1
T/C [14]: 107 % of control
T/C [15]: 104 % of control
T/C [16]: 97 % of control

CN=C(C)NC1CCCCC1
T/C [4]: 96 % of control
T/C [5]: 96 % of control

CC(C)CC(N)C(=O)NC(C(=O)O)c1ccc(O)cc1 (configuration not stated) (H-Leu-[Hpg]-OH; configuration not given here)
T/C [7]: 103 % of control
T/C (dose: 100.0 mg/kg/injection, schedule: Q01DX009 (ip), vehicle: saline with Tween-80): 101 % of control
T/C (dose: 200.0 mg/kg/injection, schedule: Q01DX009 (ip), vehicle: saline with Tween-80): 102 % of control

COc1ccc(C(C)c2cc3c(cc2OCC(=O)O)OCO3)cc1OC (configuration not stated)
T/C (dose: 50.0 mg/kg/injection, schedule: Q01DX005 (ip), vehicle: distilled water + Tween-80): 95 % of control
T/C (dose: 100.0 mg/kg/injection, schedule: Q01DX005 (ip), vehicle: distilled water + Tween-80): 102 % of control

O=C1NCC(CCl)O1 (configuration not stated)
T/C [17]: 100 % of control
T/C [18]: 101 % of control
T/C [19]: 102 % of control

Cc1n[nH]c(=S)nc1C
T/C [20]: 100 % of control
T/C [21]: 93 % of control
T/C [8]: 100 % of control
T/C [9]: 95 % of control

CN(Cc1nc(-c2ccccc2)no1)c1nc(-c2ccccc2)no1
T/C (dose: 100.0 mg/kg/injection, schedule: Q01DX001 (ip), vehicle: Klucel (hydroxypropylcellulose) (HPC)): 97 % of control
T/C (dose: 200.0 mg/kg/injection, schedule: Q01DX001 (ip), vehicle: Klucel (hydroxypropylcellulose) (HPC)): 109 % of control
T/C (dose: 400.0 mg/kg/injection, schedule: Q01DX001 (ip), vehicle: Klucel (hydroxypropylcellulose) (HPC)): 95 % of control

O=c1cc(-c2ccccc2)oc2c(OCc3ccccc3)c(OCc3ccccc3)ccc12
T/C (dose: 100.0 mg/kg/injection, schedule: Q04DX002 (ip), vehicle: saline with Tween-80): 100 % of control
T/C (dose: 200.0 mg/kg/injection, schedule: Q04DX002 (ip), vehicle: saline with Tween-80): 102 % of control
T/C (dose: 400.0 mg/kg/injection, schedule: Q04DX002 (ip), vehicle: saline with Tween-80): 96 % of control

CCN(CC)CCOCC(=O)Nc1c(C)cccc1Cl
T/C (dose: 50.0 mg/kg/injection, schedule: Q04DX003 (ip), vehicle: saline): 102 % of control and 113 % of control and 96 % of control
T/C (dose: 100.0 mg/kg/injection, schedule: Q04DX003 (ip), vehicle: saline): 100 % of control and 101 % of control and 120 % of control
T/C (dose: 200.0 mg/kg/injection, schedule: Q04DX003 (ip), vehicle: saline): 88 % of control and 92 % of control and 95 % of control

CC([NH-])C(=O)O.[Cu+2].[NH-]C(Cc1cnc[nH]1)C(=O)O (configuration not stated)
T/C (dose: 25.0 mg/kg/injection, schedule: Q01DX009 (ip), vehicle: saline): 97 % of control

CCCCCCN(CCCCCC)CC(O)c1cc2c(c3ccccc13)CCCC2 (configuration not stated)
T/C [11]: 94 % of control
T/C [12]: 103 % of control
T/C [13]: 103 % of control

O=C(Nc1cccc(C(=O)Nc2ccc(S(=O)(=O)O)c3cc(S(=O)(=O)O)cc(S(=O)(=O)O)c23)c1)Nc1cccc(C(=O)Nc2cccc3c(S(=O)(=O)O)c(S(=O)(=O)O)cc(S(=O)(=O)O)c23)c1
T/C [17]: 88 % of control
T/C [18]: 99 % of control
T/C [19]: 93 % of control

Cc1ccc(S(=O)(=O)C(=S)SCc2ccccc2)cc1
T/C [14]: 106 % of control
T/C [15]: 105 % of control
T/C [16]: 96 % of control

CC1=CC2C3C(=O)NC(=O)C3C1C1C3C(=O)NC(=O)C3C21 (configuration not stated)
T/C [2]: 98 % of control
T/C [3]: 104 % of control
T/C [10]: 95 % of control

O=[N+]([O-])/C=C/c1c(Cl)cccc1Cl
T/C [20]: 99 % of control
T/C [21]: 100 % of control
T/C [8]: 100 % of control

NC(CS)C(=O)O (configuration not stated)
T/C [11]: 101 % of control
T/C [4]: 115 % of control
T/C [12]: 107 % of control
T/C [5]: 110 % of control
T/C [13]: 110 % of control
T/C [6]: 109 % of control

CC(C)n1c2c(c3ccccc3c1=O)C(=O)c1ccccc1-2
T/C (dose: 12.5 mg/kg/injection, schedule: Q01DX005 (ip), vehicle: saline with Tween-80): 95 % of control
T/C (dose: 25.0 mg/kg/injection, schedule: Q01DX005 (ip), vehicle: saline with Tween-80): 86 % of control
T/C [11]: 86 % of control

Nc1nc(N)c2cc(NCc3ccccc3Cl)ccc2n1
T/C (dose: 6.25 mg/kg/injection, schedule: Q01DX001 (ip), vehicle: saline with Tween-80): 100 % of control
T/C (dose: 12.5 mg/kg/injection, schedule: Q01DX001 (ip), vehicle: saline with Tween-80): 112 % of control
T/C (dose: 16.5 mg/kg/injection, schedule: Q01DX009 (ip), vehicle: saline with Tween-80): 104 % of control
T/C (dose: 25.0 mg/kg/injection, schedule: Q01DX001 (ip), vehicle: saline with Tween-80): 104 % of control

COc1cc2c(c(OC)c1OC)CCCC2=O
T/C (dose: 50.0 mg/kg/injection, schedule: Q01DX009 (ip), vehicle: Klucel (hydroxypropylcellulose) (HPC)): 111 % of control
T/C (dose: 100.0 mg/kg/injection, schedule: Q01DX009 (ip), vehicle: Klucel (hydroxypropylcellulose) (HPC)): 113 % of control
T/C (dose: 200.0 mg/kg/injection, schedule: Q01DX009 (ip), vehicle: Klucel (hydroxypropylcellulose) (HPC)): 117 % of control

CCC(CC)C1SCC(=O)N1c1nncs1 (configuration not stated)
T/C [11]: 99 % of control
T/C [12]: 105 % of control
T/C [13]: 102 % of control

Cc1cc2c(=O)cc(-c3ccccc3)oc2c(C(=O)O)c1C
T/C [1]: 103 % of control
T/C [2]: 114 % of control and 118 % of control
T/C [10]: 161 % of control
